Experimental data taken from patent US10940139B2, “Compounds that interact with the Ras superfamily for the treatment of cancers, inflammatory diseases, rasopathies, and fibrotic disease” (Shy Therapeutics LLC, priority 2017, dated 2021).

Tests used:
[1] = system: TNFα production in RAW 264.7 macrophage cell line; experiment: Mouse TNF alpha quantification assay (LPS-stimulated macrophages, ELISA); format: cell-based; conditions: RAW264.7, RAW 264.7 murine leukemia virus transformed macrophage cell lines, LPS stimulation, read-out: TNF-α % Inhibition at 30 μM
[2] = system: IL6 production in RAW 264.7 macrophage cell line; experiment: Mouse IL6 quantification assay (LPS-stimulated macrophages, ELISA); format: cell-based; conditions: RAW264.7, RAW 264.7 murine leukemia virus transformed macrophage cell lines, LPS stimulation, read-out: IL-6 % Inhibition at 30 μM

SMILES	inhibition at 30 µM [1]	inhibition at 30 µM [2]
Oc1nc(-c2ccccn2)nc2c(CC3CNC3)csc12 [drawing 2346]	1 to 25%	76 to 100%
O=C(Nc1nnc(-c2ccccn2)[nH]1)c1cccc(NC(=O)C2CCCO2)c1 (stereo not drawn) [drawing 1961]	0%	1 to 25%
COCCNc1nc(-c2ccccn2)nc2scc(-c3ccccc3)c12 [drawing 2161]	76 to 100%	76 to 100%
COCCNc1nc(-c2nccn2C)nc2sc(-c3ccccc3)c(-c3ccccn3)c12 [drawing 2449]	76 to 100%	76 to 100%
O=S(=O)(c1ccccc1)N1CCCc2c(O)nc(-c3ccccn3)nc21 [drawing 2084]	1 to 25%	0%
c1ccc(-c2nc(NCC3CCCO3)c3ccsc3n2)nc1 (stereo not drawn) [drawing 2129]	1 to 25%	51 to 75%
COc1ccc(CCNC(=O)c2csc3nc(-c4ccccn4)nc(N4CCS(=O)(=O)CC4)c23)cn1 [drawing 2246]	0%	26 to 50%
O=C(c1cc2nc(-c3ccccn3)nc(O)c2s1)N1CCOC(c2ccccc2)C1 (stereo not drawn) [drawing 2235]	1 to 25%	1 to 25%
CCCCSc1nc(-c2cccs2)c(C(=O)C(F)(F)F)cc1C#N [drawing 2053]	0%	51 to 75%
Oc1nc(-c2ccccn2)nc2c(-c3cc(Cl)cc(Cl)c3)csc12 [drawing 2241]	1 to 25%	0%
CCN(CC)CCOc1nc(-c2nccn2C)nc2sc(-c3ccccc3)c(-c3ccccc3)c12 [drawing 2400]	76 to 100%	76 to 100%
O=S(=O)(Oc1cc(C(F)(F)F)cc(C(F)(F)F)c1)N1CCc2ccccc2C1 [drawing 2062]	0%	51 to 75%
CCC(C)(C)c1ccc(OCCCC(=O)NC(C(=O)OC)C(C)C)c(C(C)(C)CC)c1 (stereo not drawn) [drawing 2054]	26 to 50%	26 to 50%
O=C(CC1CCCC1)NCC(=O)Nc1nnc(-c2ccccn2)[nH]1 [drawing 1962]	1 to 25%	1 to 25%
Cn1cc(-c2nc(C(=O)Nc3nnc(-c4ccccn4)[nH]3)cs2)cn1 [drawing 1944]	1 to 25%	51 to 75%
Cc1c(C(=O)Nc2nnc(-c3ccccn3)[nH]2)oc2c1C(=O)CCC2 [drawing 1946]	0%	1 to 25%
O=C(COc1ccccc1)Nc1nnc(-c2ccccn2)[nH]1 [drawing 1993]	0%	1 to 25%
COc1ccc(-c2csc3[nH]c(-c4ccccn4)nc(=O)c23)cc1 [drawing 2023]	1 to 25%	26 to 50%
COc1ccc(C2CN(C(=O)c3csc4c(O)nc(-c5ccccn5)nc34)CCN2)cc1 (stereo not drawn) [drawing 2198]	0%	51 to 75%
O=C(Nc1nnc(-c2ccccn2)[nH]1)c1ncoc1-c1cccs1 [drawing 1963]	1 to 25%	26 to 50%
Nc1nc(O)c2scc(C(=O)N3CCC(N4CCOCC4)CC3)c2n1 [drawing 2093]	1 to 25%	0%
Cc1c(-c2csc3c(O)nc(-c4ccccn4)nc23)cnn1C [drawing 2327]	51 to 75%	76 to 100%

SMILES	inhibition at 30 µM [1]	inhibition at 30 µM [2]
Cn1ccnc1-c1nc(O)c2sc(-c3ccccc3)c(-c3ccccc3Cl)c2n1 [drawing 2422]	51 to 75%	76 to 100%
CC1CN(c2ccccc2)CCN1C(=O)c1csc2c(O)nc(-c3ccccn3)nc12 (stereo not drawn) [drawing 2186]	26 to 50%	76 to 100%
COC(=O)C(C)CN(Cc1ccccc1)c1nc(C(F)(F)F)ccc1C#N (stereo not drawn) [drawing 2065]	0%	26 to 50%
Cc1ccc(CC(=O)Nc2nnc(-c3ccccn3)[nH]2)s1 [drawing 1975]	0%	1 to 25%
COc1ccc(F)cc1-c1csc2c(O)nc(-c3ccccn3)nc12 [drawing 2266]	26 to 50%	76 to 100%
O=C(Nc1nc(-c2ccccn2)cs1)c1ccc2[nH]cnc2c1 [drawing 2012]	1 to 25%	26 to 50%
COc1ccnc(-c2nc(O)c3c(C#N)csc3n2)c1 [drawing 2203]	0%	1 to 25%
Cc1sc2c(O)nc(-c3nccn3C)nc2c1-c1ccccc1 [drawing 2421]	26 to 50%	76 to 100%
CC(Nc1nc(-c2ccccn2)nc2scc(-c3ccccc3)c12)c1nncn1C (stereo not drawn) [drawing 2138]	1 to 25%	1 to 25%
O=C(COCc1cccnc1)Nc1nc(-c2ccccn2)nc2sccc12 [drawing 2222]	1 to 25%	51 to 75%
CC(C)c1nc(CC(=O)Nc2nnc(-c3ccccn3)[nH]2)cs1 [drawing 1949]	0%	1 to 25%
COC(=O)c1csc2nc(-c3ccccn3)nc(N)c12 [drawing 2287]	0%	51 to 75%
O=C(Nc1nnc(-c2ccccn2)[nH]1)c1ccn(-c2cccc(F)c2)n1 [drawing 1938]	0%	26 to 50%
Oc1nc(-c2ccccn2)nc2c(-c3ccccc3OC3CCCCC3)csc12 [drawing 2258]	26 to 50%	76 to 100%
Oc1nc(-c2ccccn2)nc2cc(-c3ccccc3)sc12 [drawing 2389]	1 to 25%	26 to 50%
O=C(NCCc1cccnc1)c1csc2c(O)nc(-c3ccccn3)nc12 [drawing 2115]	0%	26 to 50%
CCN(CC)C(=O)c1sc2[nH]c(-c3ccccn3)nc(=O)c2c1C [drawing 2029]	1 to 25%	1 to 25%
O=C(CCc1cncnc1)Nc1nc(-c2ccccn2)nc2sccc12 [drawing 2283]	0%	26 to 50%
Oc1nc(-c2ccccn2)nc2c(-c3ccc4c(c3)OCO4)csc12 [drawing 2271]	76 to 100%	76 to 100%
COc1ccc(COCC(=O)N2CCCc3c(O)nc(-c4ccccn4)nc32)cc1 [drawing 2072]	1 to 25%	51 to 75%
Cc1cnc(-c2ccccn2)nc1NC(=O)Cc1ccc2cnccc2c1 [drawing 2249]	0%	76 to 100%
Cn1cc(C2CC2C(=O)Nc2nnc(-c3ccccn3)[nH]2)cn1 (stereo not drawn) [drawing 1932]	1 to 25%	0%

SMILES	inhibition at 30 µM [1]	inhibition at 30 µM [2]
COc1ccccc1C1CN(C(=O)c2csc3c(O)nc(-c4ccccn4)nc23)CCN1 (stereo not drawn) [drawing 2196]	0%	26 to 50%
COC(C)(C)c1ccc(-c2csc3c(O)nc(-c4nccn4C)nc23)cc1 [drawing 2445]	0%	26 to 50%
O=c1[nH]c(-c2ccccn2)nc2c([C@@H]3O[C@H](CO)[C@@H](O)[C@H]3O)csc12 [drawing 2354]	26 to 50%	1 to 25%
COCCNc1nc(-c2nccn2C)nc2sc(-c3ccccc3)c(-c3ccccc3Cl)c12 [drawing 2407]	1 to 25%	51 to 75%
CC(C)C(=O)Nc1nc(CC(=O)Nc2nnc(-c3ccccn3)[nH]2)cs1 [drawing 1990]	1 to 25%	0%
COC(=O)c1ccc(C(=O)NCC2(c3ccccc3OC)CCCC2)nc1 [drawing 2058]	1 to 25%	0%
O=C(c1ccc2ccccc2n1)N1CCCc2c(O)nc(-c3ccccn3)nc21 [drawing 2075]	1 to 25%	76 to 100%
Oc1cccc(-c2csc3c(O)nc(-c4ccccn4)nc23)n1 [drawing 2320]	0%	51 to 75%
Oc1nc(-c2ccccn2)nc2c(-c3ccc(F)cc3F)csc12 [drawing 2263]	26 to 50%	76 to 100%
Oc1ccc(C2(c3cccc(Cl)c3)CCCC2)cc1 [drawing 2055]	76 to 100%	76 to 100%
Oc1nc(-c2ccccn2)nc2c(C3CCCCC3)csc12 [drawing 2336]	0%	0%
Cc1nc(-c2ccccn2)sc1C(=O)Nc1nnc(-c2ccccn2)[nH]1 [drawing 1983]	0%	1 to 25%
Cc1sc2c(O)nc(-c3ccccn3)nc2c1C(=O)N1CCN(c2ccccc2)CC1 [drawing 2332]	1 to 25%	26 to 50%
N#Cc1cccc(N2CCN(C(=O)c3csc4c(O)nc(-c5ccccn5)nc34)CC2)c1 [drawing 2181]	0%	51 to 75%
COc1cnc(-c2cn(C)cn2)nc1O [drawing 2339]	0%	26 to 50%
COc1ccc2c(c1)CCC2C(=O)Nc1ccnc(-c2ccccn2)n1 (stereo not drawn) [drawing 2207]	0%	26 to 50%
COc1cccc(C2CN(C(=O)c3csc4c(O)nc(-c5ccccn5)nc34)CCN2)c1 (stereo not drawn) [drawing 2197]	1 to 25%	76 to 100%
CN(CC(=O)Nc1nnc(-c2ccccn2)[nH]1)Cc1ccccc1 [drawing 1988]	1 to 25%	26 to 50%
CNC(=O)c1ccc(-c2csc3c(O)nc(-c4ccccn4)nc23)cc1C [drawing 2277]	0%	26 to 50%
O=C(Cc1ccc2c(c1)OCCO2)Nc1nnc(-c2ccccn2)[nH]1 [drawing 1997]	1 to 25%	0%
O=C(CCc1nn[nH]n1)Nc1nc(-c2ccccn2)nc2sccc12 [drawing 2282]	0%	1 to 25%
O=C(CCc1c[nH]c2ccccc12)Nc1nnc(-c2ccccn2)[nH]1 [drawing 1941]	0%	51 to 75%
